Experimental data published in patent US20040253224A1, “Mammalian mucinase, its recombinant production, and its use in therapy or prophylaxis against diseases in which mucus is involved or infectious diseases” (priority 2001, published 2004).

Assays:
[1] = cited from earlier work
[2] = assay type: physicochemical; settings: for enzyme precipitated at 0.5% (w/v) TCA: 0.5% (w/v) trichloroacetic acid
Description: Panel C: Precipitation by trichloroacetic acid (TCA). Purified recombinant human chitotriosidase and mouse AMCase were incubated with the indicated percentages of TCA. The amount of remaining enzyme activity after centrifugation is shown as a percentage of initial amounts.
(§1) The pH dependence of chitinase activity of AMCase was determined by incubating purified enzyme at a different pH (Mcllvaine buffer range 1.7-8.5) with 4-methylumbelliferyl substrates. Release of the fluorescent 4-metylumbelliferone was monitored fluorometrically (excitation […]).

[3] = system: Candida albicans strain CAi-4 spheroplasts; assay: chitin content of cell wall of regenerating spheroplasts (Calcofluor white); assay type: cell-based; settings: 3 μg per ml enzyme, 2 hours incubation
Description: (§2) […]. […] Chitinase enzyme preparations were added in 3 μg/ml.
In addition, the mouse acidic chitinase and chitotriosidase were both able to digest chitin in the cell wall of regenerating spheroplasts of Candida albicans. The chitin content of the cell wall was determined with the Calcofluor white stain. When regenerating cells were incubated for 2 hours with 3 μg per ml recombinant chitotriosidase or 3 μg per ml recombinant mouse acidic chitinase, the chitin content was reduced by 27% and 33%, respectively.

[4] = stability on pre-incubation at acidic or basic pH; assay type: physicochemical; settings: 30 minutes pre-incubation in McIlvaine buffer
Description: Panel B: Effects of acidic pre-incubation. Purified recombinant human chitotriosidase and mouse AMCase were pre-incubated for 30 minutes at the indicated pH in Mcllvaine buffer prior to enzyme activity measurement at the assay pH (see experimental procedures). Activity prior to incubation at the indicated pH is defined as 100%.
as §1

[5] = pH dependence of chitinase activity (McIlvaine buffer, 4-methylumbelliferyl substrates); assay type: biochemical; settings: McIlvaine buffer range 1.7-8.5
Description: Panel A: pH activity profile of the different chitinases. The pH optima were determined by monitoring enzyme activity at the indicated pH in Mcllvaine buffer. Purified human recombinant chitotriosidase (closed lozenge), purified mouse AMCase (closed circle).
as §1

[6] = chitin degradation products by FACE; assay type: biochemical; settings: FACE analysis
Description: FIG. 2. Degradation products with colloidal chitin as substrate. The FACE technique (described in experimental procedures) was used to visualize the cleavage products of recombinant human chitotriosidase and recombinant mouse AMCase using colloidal chitin as substrate. Lane 1, no enzyme added. Lane 2, products formed after incubation with 50 kDa recombinant human chitotriosidase with chitin. Lane 3, products formed with recombinant mouse AMCase and chitin. Lane 4, human chitotriosidase incubated without substrate. Lane 5, mouse AMCase incubated without substrate. Marker lane is indicated with M (sugar polymers are indicated on the right-hand side).
as §2

[7] = expression of full-length cDNA in COS-1 cells, chitinolytic activity; assay type: biochemical; settings: data not shown
Excerpt: These two sequences are most probably splice variants of the human acidic chitinase mRNA.

[8] = specific activity of purified enzyme on 4MU-chitotrioside; assay type: biochemical; settings: pH 5.2
Description: (§3) Chitin affinity chromatography was used to purify the enzyme. Detergent-free extracts of mouse tissues were prepared by homogenization in 10 volumes of potassium phosphate buffer pH 6.5, using an Ultra-turrax and centrifugation for 20 minutes at 15,000×g. The mouse intestine extract was adjusted to pH 5.0 by the addition of citric acid (0.2 M); NaCl was added to a final concentration of 2 M. A chitin column was prepared by mixing 10 grams swollen Sepharose G25 fine (Pharmacia, Uppsala, Sweden) with 300 mg of colloidal chitin (prepared as described by Shimahara et al. (Shimahara et al., 1988), followed by equilibration with phosphate-buffered saline (PBS) containing 2M NaCl. The extracts were applied onto the column with a flow speed of 0.4 ml/minute. After extensive washing, bound chitinase was eluted from the column with 8M urea, which was subsequently removed by dialysis. Protein concentrations were determined according to the method of Lowry et al. (Lowry et al 1951) using BSA as a standard. Fractions containing chitinase activity were subjected to SDS-PAGE and Western blotting as described (Renkema et al., 1995).
The specific activity of the purified enzyme was 3.9 nmol 4-methylumbelliferyl-chitotrioside hydrolyzed per mg per hour at pH 5.2, which is almost identical to that of human chitotriosidase.
as §2

[9] = system: submaxillary gland mucins; assay: viscosity and flow rate of mucin solution in vertical glass pipette; assay type: biochemical
Excerpt: The mammalian mucinase, endogenously present at mucosal surfaces in mammals, provides the solution for the above-mentioned problems concerning diseases in which mucus is involved. A mucinase of the invention is capable of cleaving mucus. In one embodiment, a specific mouse (nucleotide sequence SEQ ID NO:3 (see, Table III, below) and amino acid sequence SEQ ID NO:4 (see, Table IV, below)) and human mucinase (nucleotide sequence SEQ ID NO:2 (see, Table II, above) and amino acid sequence SEQ ID NO:1 (see, Table I, above) is provided, called AMCase. It has a catalytically active 39 kDa domain which is connected via a hinge region with a C-terminal mucin-binding domain. To show its mucus-degrading property, we have incubated a mixture of submaxillary gland mucins with recombinant 50 kDa AMCase. The effect of the incubation was examined by analysis with SDS-PAGE and silver staining. […] The flow rate of the mucin solution, as measured in a vertically positioned glass pipette, was increased with almost a factor of 2.

[10] = binding to chitin particles
Description: as §3

[11] = system: Bovine submaxillary gland mucin; assay: degradation of mucin, SDS-PAGE and silver staining; assay type: biochemical; settings: 125 μg mucin, 500 ng enzyme, 0.05M NaAc pH 5.0, overnight 37° C.
Description: (§4) FIG. 7. The effect of AMCase on glycoproteins was studied by evaluating the effect of mouse AMCase on mucin, a type of glycoproteins expressed on mucosal surfaces in the airways and gastrointestinal tract. Bovine submaxillary gland mucin (Sigma) 125 μg was dissolved in 40 μl 0.05M NaAc pH 5.0 in the presence or absence of 500 ng mouse AMCase. After overnight incubation at 37° C., the mucin was electrophorized on an SDS-PAGE gel 7.5%, followed by silver staining.
as §4, with “The” for “FIG. 7. The”, “of” for “of mouse”, “glycoprotein” for “type of glycoproteins”, “(7.5% homogeneous,” for “7.5%,”, “staining). As is shown in FIG. 7, the mucin was degraded by treatment with the AMCase.” for “staining.”

[12] = system: hyphae of Candida albicans; assay: incubation of hyphae with recombinant AMCase; assay type: cell-based
[13] = resistance against proteases; assay type: physicochemical

CC(=O)N[C@@H](CS)C(=O)O [N-acetylcysteine]
mucolytic activity in vitro ([1]; in vitro): has mucolytic activity in vitro | mucolytic activity in vivo ([1]; in vivo): has not been demonstrated convincingly in vivo

chitotriosidase: human phagocyte chitinase, SEQ ID NO:10, used as comparator [reference compound]
enzyme precipitated at 0.5% (w/v) TCA [2]: 58% | enzyme precipitated at 2.5% (w/v) TCA ([2]; 2.5% (w/v) trichloroacetic acid): all chitotriosidase precipitates | chitin content of cell wall reduced by [3]: 27% | effect of pre-incubation at low pH on activity [4]: completely inactivated | pH optimum (pronounced) [5]: only a broad pH optimum | cleavage products released from chitin [6]: releases mainly chitobioside fragments

human AMCase: human acidic mammalian chitinase/mucinase, amino acid sequence SEQ ID NO:1
chitinolytic activity of expressed protein [7]: protein with chitinolytic activity

mouse AMCase: acidic mammalian chitinase/mucinase of mouse, 50 kDa protein, amino acid sequence SEQ ID NO:4
specific activity of the purified enzyme [8]: 3.9 nmol 4-methylumbelliferyl-chit | specific activity of the purified enzyme ([8]; listed as mouse acidic chitinase): 3.9 nmol 4-methylumbelliferyl-chitotrioside hydrolyzed per mg per hour | enzyme remaining unprecipitated at 2.5% (w/v) TCA [2]: 26% | enzyme precipitated at 0.5% (w/v) TCA [2]: remains in solution | chitin content of cell wall reduced by [3]: 33% | viscosity of the mucin solution after incubation [9]: markedly reduced | increase of flow rate of the mucin solution ([9]; vertically positioned glass pipette): ~2 factor | binding to chitin particles [10]: high affinity | degradation of mucin [11]: degraded substantially | degradation of mucin ([11]; listed as recombinant 50 kDa AMCase): remarkable reduction in size of the mucins | effect on hyphae (fungistatic effect) [12]: selective lysis of the growing tip | less pronounced pH optimum [5]: 4.7 pH | pH optimum (pronounced) [5]: 2.3 pH | cleavage products released from chitin [6]: releases mainly chitobioside fragments | resistance against proteases [13]: quite resistant against various proteases
